The target of one test is T1, PTP1B (Homo sapiens, UniProt P18031).
T1 sequence (P18031 1-435): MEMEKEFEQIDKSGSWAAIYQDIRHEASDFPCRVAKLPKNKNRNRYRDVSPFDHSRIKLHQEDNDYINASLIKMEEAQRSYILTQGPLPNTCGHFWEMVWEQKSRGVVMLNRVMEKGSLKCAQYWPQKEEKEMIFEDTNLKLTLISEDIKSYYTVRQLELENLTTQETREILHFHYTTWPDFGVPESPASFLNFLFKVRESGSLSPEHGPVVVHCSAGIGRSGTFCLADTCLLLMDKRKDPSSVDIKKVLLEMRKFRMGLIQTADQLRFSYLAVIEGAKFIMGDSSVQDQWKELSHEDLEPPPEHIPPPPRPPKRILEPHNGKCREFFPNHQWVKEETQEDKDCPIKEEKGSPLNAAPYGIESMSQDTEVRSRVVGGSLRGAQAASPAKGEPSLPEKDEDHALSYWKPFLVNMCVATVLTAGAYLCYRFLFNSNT
Kind of test: Phosphatase activity assay (Bio-Biochem-DiFMUP), PTP1B. Particulars: DiFMUP substrate, room temperature. The format is biochemical. The text has this:
(§1) The selectivity and potency of a small molecule PTPN2 inhibitor as provided herein (e.g., a derivative of Formula I, II, III, IV; or sub-formulae thereof) against one or more protein tyrosine phosphatase (PTP) enzymes, and specifically against PTPN2, can be assessed in various ways. The one or more PTP enzymes comprise Mycobacterium protein tyrosine phosphatase A (mPTPA), Mycobacterium protein tyrosine phosphatase B (mPTPB), PTPN1 (i.e., PTP1B), PTPN2 (i.e., TC-PTP), SHP-1, SHP-2, FAP-1, Meg2, HePTP, Laforin, VHX, VHR, LMWPTP, Cdcl4A, LAR, CD45, PTPRG, a fragment thereof, a variant thereof, and a combination thereof. Selectivity and potency of a small molecule PTPN2 inhibitor is evaluated using a PTP activity inhibition assay. The assay is performed using a buffer comprising 50 millimolar (mM) Bis-Tris (pH=6.3), 2 mM EDTA, and 5 mM N,N′-dimethyl-N,N′-bis(mercaptoacetyl)hydrazine (DMH). The assay is performed using a phosphated substrate, e.g., 10 mM fluorescein diphosphate (FDP) that is stored at −20° C. Alternatively or in addition to, the assay is performed using 10 mM DiFMUP as a phosphated substrate. Each PTP enzyme is diluted in an enzyme dilution buffer comprising 50 mM Bis-Tris (pH=6.3), 2 mM EDTA, 5 mM DMH, 20% (vol./vol.) glycerol, and 0.01% (vol./vol.) Triton X-100.
(§2) The assay is carried out at room temperature in 96 well plates. A reaction mixture of 170 microliter (μL) of the assay buffer comprising 10 μM FDP or DiFMIUP is added to each well. A 10 μL volume of (i) a compound disclosed herein (e.g., PTPN2 inhibitor) dissolved in DMSO at one of 10 concentrations from a serial dilution or (ii) DMSO alone for control is added to each well. The reaction is initiated by adding 20 μL of a PTP enzyme (e.g., PTPN2) that is diluted in the enzyme dilution buffer. The phosphatase activity of the PTP enzyme is assessed by monitoring appearance of a fluorescent product (e.g., fluorescein monophosphate (FMP) from FDP, or 6,8-difluoro-7-hydroxyl-4-coumarin (DiFMU) from DiFMUP) continuously for about 15 to 30 minutes, using the SpectraMax® Gemini™ XPS Microplate Spectrofluorometer (Molecular Devices®) with excitation of 440 nm and emission at 530 nm (cutoff filter at 525 nm) for FMP and excitation at 360 nm and emission at 450 nm (cutoff filter at 435 nm) for DiFMU. The rate (e.g., the initial rate) of FMP or DiFMU formation is plotted against the concentration of the small molecule PTPN2 inhibitor, and the data is fitted (e.g., using a 4-parameter equation) to determine the inflection point of the fit as the IC50 of the small molecule PTPN2 inhibitor for a specific enzyme. Table 6 summarizes the IC50 values of compounds disclosed herein against PTPN2 and PTPN1.

The target in the next test is T2, PTPN2 (Homo sapiens, UniProt P17706).
T2 sequence (P17706 1-415): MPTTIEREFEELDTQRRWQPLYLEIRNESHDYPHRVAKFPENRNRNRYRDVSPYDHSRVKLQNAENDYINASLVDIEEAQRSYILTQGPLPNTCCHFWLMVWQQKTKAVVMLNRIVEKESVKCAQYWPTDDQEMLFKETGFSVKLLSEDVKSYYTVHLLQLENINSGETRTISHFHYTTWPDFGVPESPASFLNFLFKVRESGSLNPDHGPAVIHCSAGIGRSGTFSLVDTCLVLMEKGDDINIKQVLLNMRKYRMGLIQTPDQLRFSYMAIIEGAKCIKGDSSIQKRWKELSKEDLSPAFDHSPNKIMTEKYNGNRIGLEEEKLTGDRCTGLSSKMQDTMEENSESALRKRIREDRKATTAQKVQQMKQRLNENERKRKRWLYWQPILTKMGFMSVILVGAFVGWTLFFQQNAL
Kind of test: Phosphatase activity assay (Bio-Biochem-DiFMUP), PTPN2. It counts as biochemical. Particulars: DiFMUP substrate, room temperature.
Text: as §1, §2

A word on the IC50: it is the midpoint of a concentration-inhibition curve. In the case of `COc1cc2c(cc1N1CC(=O)NS1(=O)=O)C(=O)N(C)CC2` [Compound 101], the concentration for half-maximal inhibition (IC50) at PTP1B and on PTPN2 was above 10 µM each time.
For `COC(=O)c1cc2cc(N3CC(=O)NS3(=O)=O)c(OC)cc2s1` [Compound 102, methyl 5-(1,1-dioxido-4-oxo-1,2,5-thiadiazolidin-2-yl)-6-methoxybenzo[b]thiophene-2-carboxylate], the IC50 on PTP1B and on PTPN2 was above 10 µM in each case.
Regarding `COC(=O)c1cc2cc(N3CC(=O)NS3(=O)=O)c(O)cc2s1` [Compound 103], the IC50 at PTP1B and at PTPN2 was 1 to 10 µM in each case.
Regarding `CN1CCc2cc(O)c(N3CC(=O)NS3(=O)=O)cc2C1=O` [Compound 104], the IC50 on PTP1B and at PTPN2 was above 10 µM throughout.
As to `CC(C)CCCN1CCc2cc(O)c(N3CC(=O)NS3(=O)=O)cc2C1=O` [Compound 105], the IC50 on PTP1B was above 10 µM; on PTPN2, 1 to 10 µM.
The corresponding values for `CC(C)CCNc1ccc2cc(O)c(C3=CC(=O)NS3(=O)=O)cc2n1` [Compound 106, 5-(6-hydroxy-2-(isopentylamino)quinolin-7-yl)isothiazol-3(2H)-one 1,1-dioxide] are at most 1 µM and 1 to 10 µM.
For `O=C1C=C(c2cc3cc(Cl)cnc3cc2O)S(=O)(=O)N1` [Compound 107], in that order: 1 to 10 µM and above 10 µM.
The corresponding values for `CC(C)CCN1Cc2cc(C3=CC(=O)NS3(=O)=O)c(O)cc2N(C)C1=O` [Compound 108, 5-(7-hydroxy-3-isopentyl-1-methyl-2-oxo-1,2,3,4-tetrahydroquinazolin-6-yl)isothiazol-3(2H)-one 1,1-dioxide] are above 10 µM and above 10 µM.
With `CC(C)CCNc1ccc2cc(O)c(C3CC(=O)NS3(=O)=O)cc2n1` (stereo not shown) [Compound 109], the half-maximal inhibitory concentration (IC50) at PTP1B was 1 to 10 µM; on PTPN2, above 10 µM.
The corresponding values for `CC(C)CCN1Cc2cc(C3=CC(=O)NS3(=O)=O)c(O)cc2CC1=O` [Compound 110] are 1 to 10 µM and 1 to 10 µM.
The corresponding values for `CC(C)CCN1Cc2cc(C3CC(=O)NS3(=O)=O)c(O)cc2N(C)C1=O` (stereo not shown) [Compound 111, 5-(7-hydroxy-3-isopentyl-1-methyl-2-oxo-1,2,3,4-tetrahydroquinazolin-6-yl)isothiazolidin-3-one 1,1-dioxide] are above 10 µM and above 10 µM.
Take `CC(C)CCN1Cc2cc(C3CC(=O)NS3(=O)=O)c(O)cc2CC1=O` (stereo not shown) [Compound 112]: the IC50 on PTP1B and on PTPN2 was above 10 µM each time.
For `CN1CC=C(c2cnc3cc(O)c(C4=CC(=O)NS4(=O)=O)cc3c2)CC1` [Compound 114], the 50% inhibitory concentration (IC50) on PTP1B and on PTPN2 was above 10 µM each time.
As to `O=C1C=C(c2cc3cc(-c4cccnc4)cnc3cc2O)S(=O)(=O)N1` [Compound 115, 5-(7-hydroxy-3-(pyridin-3-yl)quinolin-6-yl)isothiazol-3(2H)-one 1,1-dioxide], the half-maximal inhibitory concentration (IC50) at PTP1B was 1 to 10 µM; at PTPN2, above 10 µM.
The corresponding values for `CC(C)CCN1Cc2cc(N3CC(=O)NS3(=O)=O)c(O)cc2N(C)C1=O` [Compound 116] are at most 1 µM and 1 to 10 µM.
The corresponding values for `O=C1CN(c2cc3nc(NCCc4ccccc4)ccc3cc2O)S(=O)(=O)N1` [Compound 118] are at most 1 µM and at most 1 µM.
For `CC(C)CCN1Cc2cc(N3CC(=O)NS3(=O)=O)c(O)cc2CC1=O` [Compound 119, 5-(6-hydroxy-2-isopentyl-3-oxo-1,2,3,4-tetrahydroisoquinolin-7-yl)-1,2,5-thiadiazolidin-3-one 1,1-dioxide], in that order: at most 1 µM and at most 1 µM.
Consider `CC(C)CCN(C)c1ccc2cc(O)c(N3CC(=O)NS3(=O)=O)cc2n1` [Compound 121], for which the 50% inhibitory concentration (IC50) on PTP1B and at PTPN2 was 1 to 10 µM throughout.
As to `CC(C)CN(C)Cc1cc(=O)n2cc(O)c(C3=CC(=O)NS3(=O)=O)cc2c1` [Compound 122], the IC50 at PTP1B and at PTPN2 was above 10 µM each time.
As to `Cn1c(=O)c(NCCc2ccccc2)cc2cc(N3CC(=O)NS3(=O)=O)c(O)cc21` [Compound 123, 5-(7-hydroxy-1-methyl-2-oxo-3-(phenethylamino)-1,2-dihydroquinolin-6-yl)-1,2,5-thiadiazolidin-3-one 1,1-dioxide], the IC50 at PTP1B and at PTPN2 was at most 1 µM throughout.
For the molecule `COc1ccc2cc(O)c(N3CC(=O)NS3(=O)=O)cc2n1` [Compound 124], the IC50 on PTP1B and at PTPN2 was at most 1 µM throughout.
Consider `O=C1CN(c2c(O)cc3ccc(NCCc4ccccc4)nc3c2F)S(=O)(=O)N1` [Compound 125], for which the IC50 on PTP1B and at PTPN2 was at most 1 µM each time.
With `O=C1CN(c2cc3nc(NCCc4ccccn4)ccc3cc2O)S(=O)(=O)N1` [Compound 126], the IC50 on PTP1B and on PTPN2 was at most 1 µM in each case.
On to `Cn1c(=O)c(NCCN2CCOCC2)cc2cc(N3CC(=O)NS3(=O)=O)c(O)cc21` [Compound 127], for which the IC50 at PTP1B and at PTPN2 was at most 1 µM in each case.
Consider `O=C1CN(c2cc3nc(OCCN4CCOCC4)ccc3cc2O)S(=O)(=O)N1` [Compound 131], for which the half-maximal inhibitory concentration (IC50) at PTP1B and on PTPN2 was above 10 µM in each case.
For `CC(C)CCNC(=O)c1cc2cc(N3CC(=O)NS3(=O)=O)c(O)cc2s1` [Compound 132], the half-maximal inhibitory concentration (IC50) at PTP1B and at PTPN2 was at most 1 µM in each case.
In the case of `Cn1c(=O)c(N2CCCC2)cc2cc(N3CC(=O)NS3(=O)=O)c(O)cc21` [Compound 134], the figures for the IC50 on PTP1B and on PTPN2 were at most 1 µM and 1 to 10 µM, respectively.
Take `CC(C)CCNc1ccc2cc(O)c(N3C(C)C(=O)NS3(=O)=O)cc2n1` (stereo not shown) [Compound 137, 5-(6-hydroxy-2-(isopentylamino)quinolin-7-yl)-4-methyl-1,2,5-thiadiazolidin-3-one 1,1-dioxide]: the concentration for half-maximal inhibition (IC50) on PTP1B and on PTPN2 was at most 1 µM throughout.
Consider `CC(C)OCCNc1ccc2cc(O)c(N3CC(=O)NS3(=O)=O)cc2n1` [Compound 138], for which the half-maximal inhibitory concentration (IC50) at PTP1B and on PTPN2 was at most 1 µM each time.
Turning to `Cn1c(=O)c(NCCOC2CCCC2)cc2cc(N3CC(=O)NS3(=O)=O)c(O)cc21` [Compound 140], the IC50 at PTP1B was at most 1 µM; on PTPN2 it was 1 to 10 µM.
The corresponding values for `Cn1c(=O)c(NCCC2CCCCC2)cc2cc(N3CC(=O)NS3(=O)=O)c(O)cc21` [Compound 141] are at most 1 µM and at most 1 µM.
The corresponding values for `CC(C)CCNc1cnc2cc(O)c(N3CC(=O)NS3(=O)=O)cc2c1` [Compound 142, 5-(7-hydroxy-3-(isopentylamino)quinolin-6-yl)-1,2,5-thiadiazolidin-3-one 1,1-dioxide] are at most 1 µM and at most 1 µM.

The values above are taken from patent US20240166641A1, “HETEROCYCLES AND USES THEREOF” (Kumquat Biosciences Inc., priority 2021, published 2024).
